This is an account of results in paper PMC7216235, “The Ionophoric Activity of a Pro-Apoptotic VEGF165 Fragment on HUVEC Cells” (International Journal of Molecular Sciences, 2020).

For data set [1], the system named is HUVEC cells. The data set can be described thus: Cell viability assay (MTS). It counts as cell-based, human. The settings on record: for reduction of cell viability at the higher dose tested: time at which it starts (in words): 50 µM peptide, 24 h and 48 h. The procedure:
HUVECs were maintained in EGM®-2 BulletKit® medium. Cells were grown to 80% confluence at 37 °C in a humid atmosphere in the presence of 5% CO2. Passages 2–5 were used. Cells were starved for 12 h, using endothelial cell basal medium (EBM®-2 basal medium, 0,2% Fetal Bovine Serum) before all experiments.
The MTS assay (CellTiter 96® AQueous One Solution, Promega) was performed to compare the viability of cells treated with different concentrations of peptides (VEGF73-101, VEGF84-101 VEGFQ79G, and VEGFI83G) and CuSO4, and their complexes. We considered two different growth conditions for our treatments to be examined, to which we refer in this paper as proliferation conditions or survival conditions. Proliferation condition: Cells (3 replicates) were seeded in 96-well plates at a density of 1.5 × 10^3 cell/well, treated in EGM®-2 BulletKit®, 2% Fetal Bovine Serum (FBS) without VEGF supplementation. Survival condition: Cells (3 replicates) were seeded in 96-well plates at a density of 3 × 10^3 cell/well in an EBM®-2 basal medium of 0.2% FBS without supplements and VEGF. MTS assay was used following 24 h or 48 h of treatments according to the manufacturer’s instructions. The required copper and peptides were pre-mixed together in water in order to allow peptide/copper complexes formations before their addition to the cells. When the experiments were performed in the presence of bathocuproine disulfonic acid disodium salt (BCS), in proliferation condition, 50 µM of the copper chelator was added during the treatment for 24 h. The results were reported as the percentage of viable cells, with respect to the control set, to 100%.

Data set [2] can be described thus: Model membrane permeabilization assay: release of 6-carboxyfluorescein from dye-filled LUVs. The note with it: 10 µM peptide, 200 µM LUVs 5:3:2 POPC/POPE/POPS, 10 mM phosphate buffer, 100 mM NaCl, pH 7.4, 25 °C, after 800 min, fluorescence λex 494/λem 520 nm, average of three experiments. The procedure:
Figure 2 Dye release (membrane leakage) from model membranes induced by VEGF73-101, VEGF84-101, VEGFQ79G, and VEGFI83G. Kinetics of dye release from 200 µM LUVs of 5:3:2 POPC/POPE/POPS in the presence of 10 µM of each peptide. All experiments were performed in 10 mM phosphate buffer, 100 mM NaCl, pH 7.4, at 25 °C. Results are the average of three experiments.
Figure 7 Peptide induced release of 6-carboxyfluorescein from 200 μM POPC:POPE:POPS LUVs measured in the presence of (a) 10 μM peptides/Cu and (b) 10 μM VEGF73-101 (magenta curve) and its 1:1 Cu(II) complex (black curve), 10 μM VEGFI83G (green curve) and its 1:1 Cu(II) complex (blue curve). Experiments were in triplicate at 25 °C in 10 mM phosphate buffer, 100 mM NaCl, pH 7.4.
Model membranes were prepared according to a procedure described elsewhere. To mimic the lipid composition of endothelial cell membranes, we used POPC:POPE:POPS (5:3:2 molar ratio) lipid mixture. Multilamellar vesicles (MLVs) were obtained by vortexing a chloroform lipid solution under a gentle nitrogen flow. Next, the lipid solution was dried overnight in a vacuum at room temperature in a round-bottomed flask to remove all the residual solvent. […] Pore formation in the lipid bilayer was monitored by measuring the increase in fluorescence emission intensity due to dye dilution (dequenching) in the buffer upon membrane leakage. […]

Data set [3] is described as follows: RP-HPLC retention time on PepMap C18 column (UHPLC-ESI MS) as a measure of peptide hydrophobicity. The note with it: used by the paper as measure of relative hydrophobicity, amidated-acetylated peptides, PepMap C18 column 300Å (75 μm × 150 mm), linear gradient 2% to 99% B (20% water–80% acetonitrile) with 0.1% FA over 40 min, 0.3 µL/min, 40 °C. The data set is classed as physicochemical. The procedure:
Here, we tested peptide lipophilic features by high-performance liquid chromatography using a reverse phase RP18 column.
To evaluate the relative hydrophobicity of the peptides, the retention times of amidated-acetylated peptides were recorded on a PepMap C18 column 300Å (75 μm × 150 mm) using a linear gradient from 2% to 99% of B (20% water–80% acetonitrile) containing 0.1% FA over 40 min, at a flow rate of 0.3 µL/min. The injection volume was 5 μL for analysis. The Q-exactive mass spectrometer was equipped with nano electrospray ion source (Nano EASY-Spray). The thermostatted column compartment was at 40 °C. The optimized parameters of mass spectrometry were illustrated as below: spray voltage, + 3.0 kV; capillary temperature, 250 °C; full MS; resolution, 70,000; automatic gain control (AGC) target, 3.0 × 10^6; maximum injection time (IT), 200 ms; scan range, 150–2000m/z. Nitrogen was used for spray stabilization. All data collected in profile mode were acquired and processed using Thermo Xcalibur 3.0 software.

Data set [4] relates to HUVEC cells. The data set can be described thus: Annexin V-FITC/PI staining, flow cytometry. It counts as cell-based, human. The settings on record: 72 h; for induction of apoptosis (in words): 5 µM peptide, EBM-2 0.2% FBS, PI/Annexin V, two experiments in triplicate. On the procedure: Annexin V/ PI is a commonly used approach for studying apoptotic cells. Propidium iodide (PI) is widely used in conjunction with Annexin V to determine if cells are viable, apoptotic, or necrotic through differences in plasma membrane integrity and permeability. The fluorescence of AnnexinV-FITC/PI assay was read using flow cytometry. HUVEC cells were seeded on a 12-well plate at a density of 2.5 ×10^4 and grown for 48 h before treatments. During the last 24 h cells were starved in the same EBM-2 basal medium containing 0.2% fetal bovine serum without EC (endothelial cell) supplements. Cells were then exposed to 5 µM peptide for 72 h. When required, 10 µM CuSO4 was used in combination with peptides. Five hours of incubation in the presence of 1 µM STS (staurosporine) was used as a positive control for cell death. Cells were harvested and stained with Annexin V-FITC (Fluorescein isothiocyanate) and propidium iodide using an annexin V-FITC apoptosis detection kit (Life technologies, Monza (MB), Italy), following the manufacturer’s instructions. Briefly, cells were pelleted and resuspended in 800 µL PBS buffer containing 20 µL of annexin V, 20 µL of propidium iodide, and PI (Annexin V/Dead Cell Apoptosis Kit (Invitrogen), and kept for 10 min at 25 °C in the dark. Samples were analyzed within 1 h by flow cytometry using a CyFlow® ML (Sysmex Partec Milan-Italy). The fluorescent scatter plots indicated three types of cell populations: viable (Annexin V-FITC−/PI−), dead (Annexin V-FITC + /PI+), and apoptotic (Annexin V-FITC + /PI−). Quadrant analysis (FlowMax software -Partec) was performed on the gated fluorescent scatter plot to examine the percentage of live, dead, and apoptotic cell populations. Experiments were repeated twice in triplicate.
Sample were analyzed, 2 × 10^4 cells per sample, using a CyFlow® ML flow cytometer (Partec) system equipped with three laser sources and 10 optical parameters with dedicated filter setting and a high numerical aperture microscope objective (50× NA 0.82) for the detection of different scatter and fluorescence signals. […]

Setting [5] is: survival conditions (EBM2, 0.2% FBS without growth factors), MTS.

For `O=S(=O)([O-])[O-].[Cu+2]` [Cu(II), copper sulfate, reference compound], the “cell viability of Cu(II) alone (in words)” value in the data set on HUVEC cells [1] (24 h, same concentrations as in the complexes, survival and proliferation conditions, MTS (Figure 9)) is reported as “had no effects”.

Regarding “Ac-ESNITMQIMRIKPHQGQHIGEMSFLQHNK-NH2 [VEGF73-101]”, the “dye release (membrane leakage)” value in data set [2] is around 5%. Also, the “RP-HPLC retention time tR” value in data set [3] worked out at 21.7 min. In addition, the “induction of apoptosis (in words)” value in the data set on HUVEC cells [4] is “able to induce apoptosis”. In the data set on HUVEC cells [4] (peptide 5 µM with copper(II) 10 µM, PI/Annexin V (Figure 10)), the “live cells in the presence of Cu(II) (in words)” value was “caused a decrease in live cells”. Besides, the “cell viability (in words)” value in the data set on HUVEC cells [1] (5 µM peptide, 48 h, survival conditions (EBM2, 0.2% FBS without growth factors), MTS) is recorded as “significantly decrease cell viability”. Moreover, in the data set on HUVEC cells [1] (setting [5]), the “reduction of cell viability at the higher dose tested: time at which it starts (in words)” value (“reduction of cell viability” below) is “starting at 24 h”. The “effect of the copper chelator BCS on the peptide's effect on cell viability (in words)” value in the data set with HUVEC cells [1] (BCS 50 µM, 24 h, proliferation conditions, no added copper, MTS (Figure S10)) is “not significantly altered by BCS”.

As to “Ac-ESTNIMGIMRIKPHQGQHIGEMSFLQHNK-NH2 [VEGFQ79G, VEGF73-101 with point mutation in position 79 (Gln-Gly)]”, the “RP-HPLC retention time tR” value in data set [3] is listed as 21.4 min. Further, in the data set on HUVEC cells [1] (setting [5]), the “reduction of cell viability” value is listed as “starting at 48 h”.

As to “Ac-ESTNIMQIMRGKPHQGQHIGEMSFLQHNK-NH2 [VEGFI83G, VEGF73-101 with point mutation in position 83 (Ile-Gly)]”, the “RP-HPLC retention time tR” value in data set [3] is listed as 20.4 min. Besides, the “reduction of cell viability” value in the data set with HUVEC cells [1] (setting [5]) is on record as “starting at 24 h”.

Turning to Ac-KPHQGQHIGEMSFLQHNK-NH2 [VEGF84-101], the “RP-HPLC retention time tR” value in data set [3] was determined as 18.2 min. Also, the “induction of apoptosis (in words)” value in the data set on HUVEC cells [4] is listed as “Neither the shorter sequence (VEGF84-101), nor the single mutated peptides induced apoptosis”. In addition, the “reduction of cell viability” value in the data set on HUVEC cells [1] (setting [5]) is recorded as “all peptides (except VEGF84-101) were able to reduce cell viability”.
